Source: patent US20040176371A1, “Novel pyrazolopyrimidinethione derivatives, preparation methods thereof and their use as therapeutics for erectile dysfunction” (priority 2001, published 2004)

Columns and labels:
[1] = target: phosphodiesterase I (PDE I); assay: Inhibitory activity against phosphodiesterase I (method of Thompson and Appleman); assay type: biochemical; conditions: enzyme isolated from diaphragm kidney cortex of rat
Experimental: (§1) In order to identify the effects of compounds of formula 1 according to the present invention on erectile dysfunction, inhibitory activities against phosphodiesterase V and other isozymes (I, III and VI) were evaluated in accordance with the following procedure.
(§2) Phosphodiesterases I, III and V were isolated from diaphragm kidney cortex of rat, phosphodiesterase VI was isolated from retina of rat. Inhibitory activities against the isolated enzymes were evaluated by the method of Thompson and Appleman (Thompson and Appleman, Biochemistry, 1971, 10, 311-316). A reaction mixture for enzyme activity [Total volume 100 μl: PDE enzymes (Column fraction 20˜40 μl), […] and 20 μl M calmodulin (10 μl addition for PDE I), [^3H]-cAMP, [^3H]-cGMP(1 μCi/μl), compound of formula 1 (0.01 nM˜1 μM), 50 mM Tris-HCl buffer solution (pH 7.4), 15 mM MgCl2, distilled water] was incubated in a water bath at 30° C. for 30 minutes, and then heat-denatured at 100° C. for 2 minutes to denature enzymes. After the reaction mixture was cooled down on ice, 250 μg/ml venom was added thereto. The resulting mixture was incubated at 30° C. for 10 minutes, and then 0.5 ml of cold d-H2O was added thereto to obtain a specimen. Guanine was separated from the specimen using an anion exchange resin (DEAE Sephacel A-25 anion exchange column). To measure the IC50 of specimen, radioactivity was counted by β-counter after treatment with 10 ml of scintillation cocktail solution.

[2] = target: phosphodiesterase III (PDE III); assay: Inhibitory activity against phosphodiesterase III (method of Thompson and Appleman); assay type: biochemical; conditions: enzyme isolated from diaphragm kidney cortex of rat
Experimental: as §1, §2

[3] = target: T1, phosphodiesterase V (PDE V) (Rattus norvegicus, UniProt O54735); assay: Inhibitory activity against phosphodiesterase V (method of Thompson and Appleman); assay type: biochemical; conditions: enzyme isolated from diaphragm kidney cortex of rat
T1 construct: Phosphodiesterases I, III and V were isolated from diaphragm kidney cortex of rat; from tissue; host or cells: rat 'diaphragm kidney cortex'
Experimental: as §1
as §2, with “Inhibitory activities against the isolated enzymes were evaluated by the method of Thompson and Appleman (Thompson and Appleman, Biochemistry, 1971, 10, 311-316).” left out

ICR mice = assay: Acute toxicity when administered orally to mouse; assay type: in vivo; conditions: single oral administration, both male and female
Experimental: In order to evaluate the toxicity of the compounds of formula 1 according to the present invention, an experiment was performed as described below.
The compound prepared in the Example 5 was administered orally to four ICR mice (2 male, 2 female) once at a dose of 128, 320, 800, 2000 and 5000 mg/kg, respectively. 7 days after the administration, mortality rate, general symptoms, changes in weight, and autopsy results were recorded.

Compound | IC50 [1] | IC50 [2] | IC50 [3] | minimal lethal dose (ICR mice)
CCCc1nn(C)c2c(=S)[nH]c(-c3cc(S(=O)(=O)N4CCN(C)CC4)ccc3OCC)nc12 [Example 5, 5-[2-ethoxy-5-(4-methylpiperazine-1-sulfonyl)phenyl]-1-methyl-3-propyl-1,6-dihydropyrazolo[4,3-d]pyrimidine-7-thione] | 1890 nM | 1250 nM | 0.59 nM | more than 5000 mg/kg
CCCc1nn(C)c2c(=S)[nH]c(-c3cc(S(=O)(=O)N4CCN(CCO)CC4)ccc3OCC)nc12 [Example 7, 5-{2-ethoxy-5-[4-(2-hydroxyethyl)piperazine-1-sulfonyl]phenyl}-1-methyl-3-propyl-1,6-dihydropyrazolo[4,3-d]pyrimidine-7-thione] | 110 nM | 3020 nM | 0.4 nM | –
CCCc1nn(C)c2c(=S)[nH]c(-c3cc(S(=O)(=O)N4CCNCC4)ccc3OCC)nc12 [Example 9, 5-[2-ethoxy-5-(piperazine-1-sulfonyl)phenyl]-1-methyl-3-propyl-1,6-dihydropyrazolo[4,3-d]pyrimidine-7-thione] | 2430 nM | 5630 nM | 0.62 nM | –
CCCOc1ccc(S(=O)(=O)N2CCN(C)CC2)cc1-c1nc2c(CCC)nn(C)c2c(=S)[nH]1 [Example 10, 1-methyl-5-[5-(4-methylpiperazine-1-sulfonyl)-2-propoxyphenyl]-3-propyl-1,6-dihydropyrazolo[4,3-d]pyrimidine-7-thione] | 620 nM | 1030 nM | 0.58 nM | –
CCCOc1ccc(S(=O)(=O)N2CCN(CCO)CC2)cc1-c1nc2c(CCC)nn(C)c2c(=S)[nH]1 [Example 12, 5-{5-[4-(2-hydroxyethyl)piperazine-1-sulfonyl]-2-propoxyphenyl}-1-methyl-3-propyl-1,6-dihydropyrazolo[4,3-d]pyrimidine-7-thione] | 10 nM | 1080 nM | 0.46 nM | –
CCCc1nn(C)c2c(=O)[nH]c(-c3cc(S(=O)(=O)N4CCN(C)CC4)ccc3OCC)nc12 [Sildenafil, reference compound] | 2250 nM | 1750 nM | – | –
